The source of these data is article PMC9820070, “Synthesis, Photochemistry, Computational Study and Potential Application of New Styryl-Thiophene and Naphtho-Thiophene Benzylamines” (International Journal of Molecular Sciences, 2022).

pIC50: −log10 of the molar value.

Series [1] deals with TNFα production in human PBMCs. As to the kind of experiment: TNFα production in LPS stimulated PBMCs. As to conditions: compound treatment and LPS stimulation. The series is classed as cell-based.
The test system of another series is THP-1 cell line. Description: THP-1 cell viability assay (CellTiter Glo). The series is classed as cell-based. As to conditions: THP-1, 72 h incubation. (In general: Cellular ATP, detected with luciferase, serves as a proxy for viable cell number.)
Series [2] deals with T1, butyrylcholinesterase from equine serum (Equus caballus, UniProt P81908). Description: biochemical.
T1 sequence (P81908 whole entry): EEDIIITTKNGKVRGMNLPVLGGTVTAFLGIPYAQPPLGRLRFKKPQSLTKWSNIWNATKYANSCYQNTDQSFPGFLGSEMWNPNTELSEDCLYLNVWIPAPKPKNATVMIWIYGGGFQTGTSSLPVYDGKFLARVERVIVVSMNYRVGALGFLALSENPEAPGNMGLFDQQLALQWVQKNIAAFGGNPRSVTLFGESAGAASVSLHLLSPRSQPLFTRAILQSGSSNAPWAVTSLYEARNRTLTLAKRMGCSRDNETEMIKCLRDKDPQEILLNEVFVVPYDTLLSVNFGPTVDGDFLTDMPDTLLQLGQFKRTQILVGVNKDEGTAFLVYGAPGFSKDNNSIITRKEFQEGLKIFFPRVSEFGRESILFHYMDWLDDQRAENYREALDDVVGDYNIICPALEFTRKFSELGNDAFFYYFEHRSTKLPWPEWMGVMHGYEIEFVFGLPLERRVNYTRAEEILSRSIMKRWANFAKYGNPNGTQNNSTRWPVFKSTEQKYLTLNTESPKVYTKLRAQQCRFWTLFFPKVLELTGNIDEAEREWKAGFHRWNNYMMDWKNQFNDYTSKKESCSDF
The target in series [3] is T1, butyrylcholinesterase from equine serum. The following applies: earlier work; cited from earlier work.
Series [4] has as its system TNFα production in human PBMCs. Set-up: method as in PMID 35228009. As to conditions: earlier work; cited from earlier work.
Series [5] has as its target acetylcholinesterase from electric eel (Electrophorus electricus, UniProt O42275). As to the kind of experiment: biochemical.
Series [6] is described as follows: Acid resistance: pH change of UV spectra and NMR control at pH 1. The class given is physicochemical. As to conditions: 1H NMR spectrum recorded at pH 1.

The pIC50 is the IC50 on a negative log10 scale, so that one unit is a factor of ten.

acetylcholinesterase from electric eel, sequence (O42275 24-633): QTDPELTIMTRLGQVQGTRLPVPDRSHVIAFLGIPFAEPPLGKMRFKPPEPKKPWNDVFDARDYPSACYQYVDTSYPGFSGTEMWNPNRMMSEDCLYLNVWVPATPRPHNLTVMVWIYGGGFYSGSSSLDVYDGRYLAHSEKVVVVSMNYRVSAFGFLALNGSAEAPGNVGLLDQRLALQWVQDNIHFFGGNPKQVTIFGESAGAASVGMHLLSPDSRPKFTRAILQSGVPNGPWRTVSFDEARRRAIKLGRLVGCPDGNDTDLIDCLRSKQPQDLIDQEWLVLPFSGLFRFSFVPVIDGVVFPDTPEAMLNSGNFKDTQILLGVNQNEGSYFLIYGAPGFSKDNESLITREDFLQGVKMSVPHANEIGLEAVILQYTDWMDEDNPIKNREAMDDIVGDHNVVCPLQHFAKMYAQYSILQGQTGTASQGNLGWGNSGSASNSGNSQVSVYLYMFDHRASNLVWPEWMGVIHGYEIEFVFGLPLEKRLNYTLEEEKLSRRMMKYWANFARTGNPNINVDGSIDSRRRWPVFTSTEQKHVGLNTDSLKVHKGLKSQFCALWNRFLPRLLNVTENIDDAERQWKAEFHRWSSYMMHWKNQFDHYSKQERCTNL

On to `Fc1ccc(CNc2ccc3ccc4sccc4c3c2)cc1` [Compound 9, N-(4-fluorobenzyl)naphtho [2,1-b]thiophen-8-amine], for which the “effect on TNFα production” value in series [1] is recorded as “did not have any effect”. In addition, the “effect on cell viability (antiproliferative activity)” value with THP-1 cell line is listed as “most potent”.

Consider `COc1ccc(CNc2ccc3ccc4sccc4c3c2)cc1` [Compound 13, N-(4-methoxybenzyl)naphtho [2,1-b]thiophen-8-amine], for which the “effect on TNFα production” value in series [1] was “did not have any effect”. Besides, the “effect on cell viability (antiproliferative activity)” value with THP-1 cell line was “most potent”.

`c1csc(CNc2ccc3ccc4sccc4c3c2)c1` [Compound 15, N-(thiophen-2-ylmethyl)naphtho [2,1-b]thiophen-8-amine]: in series [2] (equine serum BChE, Ellman's method), the pIC50 is ~4.49.

In the case of `C=CCn1nnc2ccc3sccc3c21` [allyl-thienobenzotriazole IV], the “potency as inhibitor of eqBChE compared to the standard galantamine” value in series [3] was “twice as potent”. The “TNFα production in PBMCs in response to the LPS stimulus” value in series [4] was “strongly inhibited”.

As for `C(=C/c1cccs1)/c1ccc(NCc2cccs2)cc1` [cis-8, (Z)-4-(2-(thiophen-2-yl)vinyl)-N-(thiophen-2-ylmethyl)aniline], the pIC50 in series [5] (electric eel AChE, Ellman's method) is 3.88. Further, the “acid resistance (1H NMR, cis configuration retained)” value in series [6] is given as “strong acid resistance”.

With `Fc1ccc(CNc2ccc(/C=C/c3cccs3)cc2)cc1` [trans-2, (E)-N-(4-fluorobenzyl)-4-(2-(thiophen-2-yl)vinyl)aniline], in series [1], the “effect on TNFα production” value was “did not have any effect”.

Consider `C(=C\c1cccs1)/c1ccc(NCc2cccs2)cc1` [trans-8, (E)-4-(2-(thiophen-2-yl)vinyl)-N-(thiophen-2-ylmethyl)aniline], for which the “inhibition values, AChE” value in series [5] is listed as “smaller than 50%”. Further, the “inhibition values, BChE” value in series [2] (tested at final concentrations 20–250 μM) was “smaller than 50%”.
